According to patent US7052874B2, “Detection of antibacterial activity in excretory secretory product of adult Trichuris suis” (priority 2000, dated 2006):
Structures can show the parent of a compound that is named as a salt. Where two headings read alike, the source gives them in different places.

Tests used:
Campylobacter jejuni [1] = assay: Heat stability of antibiotics (boiling, then qualitative broth microdilution assay); type: cell-based; conditions: for inactivation of antibiotic by heat treatment: boiling
Procedure: A broth microdilution method in 96 well plates was used to obtain qualitative and quantitative measures of antibacterial activity. Qualitatively, 50 μl samples of ESP were added to 50 μl suspensions of Campylobacter jejuni (containing about 5×10^5 cfu, as determined by standard serial dilution and plating) in 96 well plates. Plates were evaluated for growth as indicated by the presence of either turbidity or pellet of bacterial cells in the bottoms of U-shaped wells after 48 hr incubation. […] The size of the drug was also taken into consideration. Additionally, an experiment to assess the heat stability of the antibiotics was performed.

[2] = compiled from a drug database at Upjohn; cited from earlier work
[3] = n-octanol/water partition coefficient (log PC) of antibiotics; type: physicochemical; conditions: in parentheses beside log PC
Procedure: Consideration of CAP contamination. […] Using the worst-case scenario, the predicted maximum amount of CAP absorbed and how much would be released into the medium if the whipworms dissolved (i.e., released 100%) was estimated. […] It was assumed that the aggregate whipworm volume of these eccentrically shaped nematodes occupied 4% of the incubation well volume (4 whipworms/ml at about 10 μl/whipworm).

Campylobacter jejuni [4] = assay: Qualitative broth microdilution assay of ultrafiltration and HPLC fractions; type: cell-based; conditions: C18 reverse phase HPLC, 5–80% ACN gradient
Procedure: A broth microdilution method in 96 well plates was used to obtain qualitative and quantitative measures of antibacterial activity. Qualitatively, 50 μl samples of ESP were added to 50 μl suspensions of Campylobacter jejuni (containing about 5×10^5 cfu, as determined by standard serial dilution and plating) in 96 well plates. Plates were evaluated for growth as indicated by the presence of either turbidity or pellet of bacterial cells in the bottoms of U-shaped wells after 48 hr incubation.
Ultrafiltration. Ultrafiltration methods were used to nominally size fractionate ESP for an approximate determination of the molecular weight of the antibacterial agent(s). AMICON stirred cells under pressurized nitrogen gas were used to separate ESP into fractions above (retentate) and below (filtrate) 30,000 MW with a Millipore YM30 membrane (Millipore) and fractions above (retentate) and below (filtrate) 10,000 MW with a Millipore YM10 membrane. Prior to bioassay, the concentrated retentate fraction was returned to its original volume in RPMI-1640 media to match the volume of the filtrate so that comparisons of relative activity could be made without distortions due to volume differences. […]
High performance liquid chromatography. […] Absorbance of the eluate was monitored at 214 nm, and fractions were collected manually as peaks were detected. […]

## [H]/N=C(/N)N[C@H]1[C@H](O)[C@@H](O)[C@H](O[C@@H]2O[C@@H](C)[C@](O)(C=O)[C@H]2O[C@@H]2O[C@@H](CO)[C@H](O)[C@@H](O)[C@@H]2NC)[C@@H](N/C(N)=N\[H])[C@@H]1O [Streptomycin sulfate]
Campylobacter jejuni [1]
  Antibacterial activity after boiling: +
  inactivation of antibiotic by heat treatment: boiling did not inactivate
[2]
  log PC (n-octanol/water partition coefficient): −9.53

## CC1(C)S[C@@H]2[C@H](NC(=O)Cc3ccccc3)C(=O)N2[C@H]1C(=O)O [Penicillin G]
Campylobacter jejuni [1]; antibiotics (133 concentration) boiled for 10 minutes
  Antibacterial activity after boiling: −
Campylobacter jejuni [1]
  inactivation of antibiotic by heat treatment: inactivated by heat treatment
[3]
  Concentrating factor: (71×)

## O=C(N[C@H](CO)[C@H](O)c1ccc([N+](=O)[O-])cc1)C(Cl)Cl [Chloramphenicol, chloramphenicol]
Campylobacter jejuni [1]
  Antibacterial activity after boiling: +
  inactivation of antibiotic by heat treatment: not heat-inactivated
Campylobacter jejuni [4]
  antibacterial activity of HPLC fractions: one fraction with antibacterial activity
